These results are taken from patent publication US12030896B2, “PIKfyve inhibitors” (Mayo Foundation for Medical Education and Research, priority 2018, dated 2024).

The test system of one series is U251 glioblastoma cell. The series is described as follows: Cell killing in combination with vemurafenib. The following applies: 10 μM vemurafenib, 0 μM Example 1, 72 hour. The series is classed as cell-based, human. How it is done: A 25 mM stock of vemurafenib (obtained from Selleckchem) in DMSO was diluted to 2× the indicated concentration into the cell suspension immediately prior to plating the cell suspension onto the pre-diluted Example 1 or Example 3, to result in a final 1× concentration of both compounds.
See FIG. 13 for showing of U251 glioblastoma cell killing by Example 1 alone or in the presence of 10 μM vemurafenib over a 72 hour time course.

In a further series the test system is U251. As to the kind of experiment: U251 Vacuolization Assay (24h). The series is classed as cell-based. The following applies: Homo sapiens, U-251. How it is done: (§1) As used herein the term “EC50 (μM)” refers to the μM concentration of a compound that is required for 50% activity in a vacuolization assay.
Example A—U251 Vacuolization Assay Data (24h) for Compounds of Examples 8-56

Another series has as its system 468 kinases. The series is described as follows: Kinase selectivity panel (Treespot dendrogram). Type of series: binding. How it is done: In contrast, 50 nM Apilimod inhibited two kinases to 1% or 10%, and 3 kinases to 35% of control. To examine non-specific binding at higher concentrations, Example 1, Example 3, and Apilimod were tested at 5000 nM. […] PIKfyve is represented at the bottom left of each dendrogram.

A further series concerns IL12 and IL23. As to conditions: myeloid cells; cited from earlier work.
The conditions of series [1]: oral; cited from earlier work.
The conditions of series [2]: cited from earlier work.
For another series, the system named is cells in culture. As to the kind of experiment: Vacuolization activity in cells in culture. Type of series: cell-based.
Text: as §1
Example 2 is a biotinylated derivative of the compound of Example 1.

For `CCCS(=O)(=O)Nc1ccc(F)c(C(=O)c2c[nH]c3ncc(-c4ccc(Cl)cc4)cc23)c1F` [vemurafenib, N-(3-(5-(4-chlorophenyl)-1H-pyrrolo[2,3-b]pyridine-3-carbonyl)-2,4-difluorophenyl)propane-1-sulfonamide, reference compound], in the series with U251 glioblastoma cell, the “effect on cell killing, alone” value is “little effect”.
As usually defined, the EC50 is the concentration that produces a half-maximal response. As for `Clc1ccccc1Nc1nc(N/N=C/c2c[nH]c3ccccc23)nc(N2CCOCC2)n1` [Example 42, (2-Chloro-phenyl)-{4-[N′-(1H-indol-3-ylmethylene)-hydrazino]-6-morpholin-4-yl-[1,3,5]triazin-2-yl}-amine], the EC50 in the series on U251 is ≤ 1000 nM.
For the compound `COCCN(CCOC)c1nc(N/N=C/c2c[nH]c3ccccc23)nc(Nc2ccc(C)cc2)n1` [Example 29, (E)-6-(2-((1H-Indol-3-yl)methylene)hydrazinyl)-N2,N2-bis(2-methoxyethyl)-N4-(p-tolyl)-1,3,5-triazine-2,4-diamine], in the series with U251, the EC50 is > 50000 nM.
Same read-out and setting: with `Cc1ccc(Nc2nc(N/N=C\c3csc4ccccc34)nc(N3CCOCC3)n2)cc1` [Example 31, [4-(N′-Benzo[b]thiophen-3-ylmethylene-hydrazino)-6-morpholin-4-yl-[1,3,5]triazin-2-yl]-p-tolyl-amine] the figure was 1000 to 10000 nM; with `FC(F)(F)c1ccc(Nc2nc(N/N=C/c3c[nH]c4ccccc34)nc(N3CCOCC3)n2)cc1` [Example 20, (E)-4-(2-((1h-indol-3-yl)methylene)hydrazinyl)-6-morpholino-n-(4-(trifluoromethyl)phenyl)-1,3,5-triazin-2-amine], ≤ 1000 nM.
On the same count and under the same terms, with `Cc1ccc(Nc2nc(N/N=C/c3c[nH]c4ccccc34)nc(N3CCOc4ccccc43)n2)cc1` [Example 48, (E)-4-(2-((1H-Indol-3-yl)methylene)hydrazinyl)-6-(2H-benzo[b][1,4]oxazin-4(3H)-yl)-N-(p-tolyl)-1,3,5-triazin-2-amine] the figure was > 50000 nM; with `Cc1ccc(Nc2nc(N/N=C/c3c[nH]c4ccccc34)nc(N3CCCC3)n2)cc1` [Example 16, {4-[N′-(1H-Indol-3-ylmethylene)-hydrazino]-6-pyrrolidin-1-yl-[1,3,5]triazin-2-yl}-p-tolyl-amine], > 50000 nM.
`Cc1cccc(/C=N/Nc2cc(N3CCOCC3)nc(OCCc3ccccn3)n2)c1` [Apilimod, 3-Methylbenzaldehyde 2-[6-(4-Morpholinyl)-2-[2-(2-pyridinyl)ethoxy]-4-pyrimidinyl]hydrazine]: in the series with 468 kinases (50 nM, 468 kinases), the “number of kinases blocked to 1% of control” value is reported as “two”, the “number of kinases blocked to 10% of control” value is recorded as “two” and the “number of kinases blocked to 35% of control” value stood at 3. In the series on 468 kinases (5000 nM), the “number of kinases blocked to 1% activity level” value is reported as 4, the “number of kinases blocked to 10% activity level” value was determined as 9 and the “number of kinases blocked to 35% activity level” value was found to be 15. Further, the “selectivity for PIKfyve” value in the series with 468 kinases (comparison of Example 1, Example 3 and apilimod) was “less specific”. For the same compound, the “IL12 and IL23 production” value in the series on IL12 and IL23 is “suppresses”. Also, in series [1], the “IFN-gamma production by ex vivo cells” value is given as “decreased”, the “TH1 / TH2 responses” value is “suppressed TH1 but not TH2 responses” and the “inflammatory histopathologic skin changes” value is recorded as “markedly reduced”. For the same compound, in series [2] (headache, flushing, hypoesthesia, dizziness, paresthesia), the dose limiting toxicity was 105 mg bid. In series [2] (oral, 70 mg qd), the “mean improvement in PASI score” value is recorded as 46% and the “patients with histologic improvement” value was 47%. For the same compound, the “IL12 and IL23 expression in skin lesions” value in series [2] (oral) is “significantly reduced”.
Turning to `Cc1ccc(Nc2nc(N/N=C/c3ccccc3)nc(N3CCOCC3)n2)cc1` [Example 33, [4-(N′-Benzylidene-hydrazino)-6-morpholin-4-yl-[1,3,5]triazin-2-yl]-p-tolyl-amine], the EC50 with U251 was ≤ 1000 nM.
As for `COc1ccc(Nc2nc(N/N=C/c3c[nH]c4ccccc34)nc(N3CCOCC3)n2)cc1` [Example 12, {4-[N′-(1H-Indol-3-ylmethylene)-hydrazino]-6-morpholin-4-yl-[1,3,5]triazin-2-yl}-(4-methoxy-phenyl)-amine], the EC50 with U251 is ≤ 1000 nM.
The same measure, in the same setting: the figure for `Cc1ccc(Nc2nc(NCCc3c[nH]c4ccccc34)nc(N3CCOCC3)n2)cc1` [Example 54, N2-(2-(1H-indol-3-yl)ethyl)-6-morpholino-N4-(p-tolyl)-1,3,5-triazine-2,4-diamine] is > 50000 nM; for `COCCN(c1nc(N/N=C/c2c[nH]c3ccccc23)nc(Nc2ccc(C)cc2)n1)C(C)C` [Example 51, (E)-6-(2-((1H-Indol-3-yl)methylene)hydrazinyl)-N2-isopropyl-N2-(2-methoxyethyl)-N4-(p-tolyl)-1,3,5-triazine-2,4-diamine] it is 1000 to 10000 nM; for `CS(=O)(=O)Nc1ccc(Nc2nc(N/N=C/c3c[nH]c4ccccc34)nc(N3CCOCC3)n2)cc1` [Example 46, (E)-N-(4-((4-(2-((1H-indol-3-yl)methylene)hydrazinyl)-6-morpholino-1,3,5-triazin-2-yl)amino)phenyl)methanesulfonamide] it is ≤ 1000 nM.
Same read-out and setting: the figure for `Cc1ccc(Nc2cc(-n3ncc4c5ccccc5[nH]c43)nc(N3CCOCC3)n2)cc1` [Example 40, [2-morpholin-4-yl-6-(8H-pyrazolo[3,4-b]indol-1-yl)-pyrimidin-4-yl]-p-tolyl-amine] is 10000 to 50000 nM; for `C(=N\Nc1nc(Nc2cccc3ccccc23)nc(N2CCOCC2)n1)/c1c[nH]c2ccccc12` [Example 55, (E)-4-(2-((1H-indol-3-yl)methylene)hydrazinyl)-6-morpholino-N-(naphthalen-1-yl)-1,3,5-triazin-2-amine] it is ≤ 1000 nM.
Still for that read-out and setting: with `Fc1ccc(Nc2nc(N/N=C/c3c[nH]c4ccccc34)nc(N3CCOCC3)n2)cc1` [Example 10, (4-Fluoro-phenyl)-{4-[N′-(1H-indol-3-ylmethylene)-hydrazino]-6-morpholin-4-yl-[1,3,5]triazin-2-yl}-amine] the figure was ≤ 1000 nM.
`Cc1ccc(Nc2nc(N/N=C/c3ccncc3)nc(N3CCOCC3)n2)cc1` [Example 32, [4-Morpholin-4-yl-6-(N′-pyridin-4-ylmethylene-hydrazino)-[1,3,5]triazin-2-yl]-p-tolyl-amine] had an EC50 in the series on U251 of 1000 to 10000 nM.
For `Cc1ccc(Nc2nc(NCc3c[nH]c4ccccc34)nc(N3CCOCC3)n2)cc1` [Example 8, N-(1H-Indol-3-ylmethyl)-6-morpholin-4-yl-N′-p-tolyl-[1,3,5]triazine-2,4-diamine], the 50% effective concentration (EC50) with U251 is 1000 to 10000 nM.
On the same count and under the same terms, with `Cc1ccc(Nc2nc(N/N=C\c3cc[nH]c3)nc(N3CCOCC3)n2)cc1` [Example 24, {4-Morpholin-4-yl-6-[N′-(1H-pyrrol-3-ylmethylene)-hydrazino]-[1,3,5]triazin-2-yl}-p-tolyl-amine] the figure was 10000 to 50000 nM.
Still for that read-out and setting: the figure for `Cc1ccc(Nc2nc(N/N=C/c3c[nH]c4ccccc34)nc(N3CCOCC3)n2)nc1` [Example 45, {4-[N′-(1H-Indol-3-ylmethylene)-hydrazino]-6-morpholin-4-yl-[1,3,5]triazin-2-yl}-(5-methyl-pyridin-2-yl)-amine] is ≤ 1000 nM.
Same read-out and setting: with `N#Cc1ccc(Nc2nc(N/N=C/c3c[nH]c4ccccc34)nc(N3CCOCC3)n2)cc1` [Example 22, (E)-4-((4-(2-((1H-indol-3-yl)methylene)hydrazinyl)-6-morpholino-1,3,5-triazin-2-yl)amino)benzonitrile] the figure was ≤ 1000 nM.
For the compound `O=C(CCCC[C@@H]1SC[C@@H]2NC(=O)N[C@@H]21)Nc1ccc(Nc2nc(N/N=C/c3c[nH]c4ccccc34)nc(N3CCOCC3)n2)cc1` [Example 2, (E)-N-(4-((4-(2-((1H-indol-3-yl)methylene)hydrazinyl)-6-morpholino-1,3,5-triazin-2-yl)amino)phenyl)-5-(2-oxohexahydro-1H-thieno[3,4-d]imidazol-4-yl)pentanamide], in the series with cells in culture, the EC50 stood at 8 nM.
Take `Cc1ccc(Nc2nc(N/N=C/c3c[nH]c4ccccc34)nc(N3CCOCC3C)n2)cc1` (centres unmarked) [Example 50, (E)-4-(2-((1H-Indol-3-yl)methylene)hydrazinyl)-6-(3-methylmorpholino)-N-(p-tolyl)-1,3,5-triazin-2-amine]: the EC50 in the series on U251 is ≤ 1000 nM.
On the same count and under the same terms, the figure for `CCN(C)c1nc(N/N=C/c2c[nH]c3ccccc23)nc(Nc2ccc(C)cc2)n1` [Example 35, (E)-6-(2-((1H-Indol-3-yl)methylene)hydrazinyl)-N2-ethyl-N2-methyl-N4-(p-tolyl)-1,3,5-triazine-2,4-diamine] is > 50000 nM.
The same measure, in the same setting: the figure for `Cc1ccc(Nc2nc(N/N=C/c3cc4ccccc4[nH]3)nc(N3CCOCC3)n2)cc1` [Example 44, {4-[N′-(1H-Indol-2-ylmethylene)-hydrazino]-6-morpholin-4-yl-[1,3,5]triazin-2-yl}-p-tolyl-amine] is 1000 to 10000 nM.
Still for that read-out and setting: the figure for `Cc1ccc(Nc2nc(N/N=C\c3coc4ccccc34)nc(N3CCOCC3)n2)cc1` [Example 53, 4-(2-(benzofuran-3-ylmethylene)hydrazinyl)-6-morpholino-N-(p-tolyl)-1,3,5-triazin-2-amine] is > 50000 nM.
On to `Cc1ccc(Nc2nc(N/N=C/c3c[nH]c4ccccc34)nc(N(C)C)n2)cc1` [Example 30, (E)-6-(2-((1H-Indol-3-yl)methylene)hydrazinyl)-N2,N2-dimethyl-N4-(p-tolyl)-1,3,5-triazine-2,4-diamine], for which the EC50 in the series on U251 was > 50000 nM.
